The values that follow come from US7312302B2, “Compositions for the detection of enzyme activity in biological samples and methods of use thereof” (Oncolmmunin, Inc., priority 1997, dated 2007).

Data set [1] deals with DEVDase activity (caspase 3/7). The data set is described as follows: DEVDase activity in apoptotic thymocyte extract using PhiPhiLux substrate, with protease inhibitors. In kind it is biochemical, mouse. Particulars: for inhibition of apoptotic DEVDase activity: apoptotic thymocyte extract, FIG. 5. As for the experimental part: FIG. 5 illustrates the inhibition of DEVDase activity in apoptotic thymocyte extract using PhiPhiLux™ substrate. An extract of mouse thymocytes exposed to 0.1 mM dexamethasone for 6 h was incubated in fluorometer cuvettes at 37° C. with 10 mM PhiPhiLux™ substrate with or without the indicated protease inhibitors. Enzymatic activity was calculated from the rate of increase of fluorescence.
Single cell suspensions of thymocytes were cultured in RPMI 1640 with 10% FCS at a concentration of 10 6 cells/ml. Dexamethasone (final concentration, 0.1 mM) and ZVAD (OMe)FMK (final concentration, 50 mM) were added at the indicated times from stock solutions in DMSO (100 mM for dexamethasone and 200 mM for ZVAD[OMe]FMK). For antiFas stimulation, wells in a 24 well plate were coated with antiFas antibody (20 mg/ml; […] per well) overnight at 378 C. After twice washing the wells with medium containing 10% FCS, 4 3 10 6 thymocytes were added per well. After culture at 378 C in a 5% CO2 atmosphere for the indicated times, cells were centrifuged and resuspended in 75 ml of each substrate (10 mM) in 1.5 ml Eppendorf tubes. The open tubes were placed in the CO2 incubator for an additional 60 min. After washing in saline, cells were analyzed by flow cytometry. Caspase activity measurements in extracts with several known inhibitors and noninhibitors were carried out using fluorometers from Photon Technology International and SLMAMINCO. Cell lysates were prepared using a cell lysate buffer consisting of 50 mM Hepes, pH 7.5, 10% (wt/vol) sucrose, 0.1% (wt/vol) CHAPS, 0.5% (wt/vol) Triton X100, and 10 mM DTT. The substrate (10 mM) was prepared in 50 mM Hepes, pH 7.5, with 10 mM DTT. All measurements were made at 378 C using a thermostated cell holder in a 150 ml quartz cuvette (3 3 3. 45 mm; Starna Cells, Inc.). The temperature of the substrate solution was preequilibrated for 20 min, ensuring temperature equilibration by having a flat base line before cell lysate addition. A 10 ml aliquot from an apoptotic thymocyte lysate was added to 110 ml of substrate solution. The fluorescence intensity was then monitored for 30-60 min. The initial velocity was calculated from the linear portion of the fluorescence increase. Various amounts of inhibitors were added to the cell lysate for 20 min before addition of the cell lysate mixture to the substrate solution.
The caspase substrates used in these studies were based on optimal peptide recognition motifs for various caspases as reported by peptide library studies (2) and are described in Table I. To assess whether cleavage of these substrates in apoptotic thymocytes was due to caspases, we examined extracts from untreated fresh thymocytes, or from thymocytes treated with dexamethasone.

For data set [2] the following is noted: cited from earlier work; for free energy of activation of disruption of homodimers: doubly labeled NorFes, Packard et al. 1998.
A short description of data set [3]: Ground-state (H-type) dimer formation by absorption spectroscopy. Format: physicochemical. The following applies: homodoubly-labeled peptides. The text has this:
This was indicated by shift of absorption maxima to shorter wavelengths as well as a shape change of the absorption spectra as compared with the spectra for the enzyme digested doubly-labeled samples. Upon cleavage with elastase, the ground-state dimers were destroyed and the resulting spectra were the same as a solution containing equal concentrations of the respective singly labeled peptides.
For example, NorFes, an undecapeptide which is cleaved by the serine protease elastase, was homodoubly labeled on opposite sides of its cleavage site with six fluorophores in order to identify structural elements of dyes which influence intramolecular H-type dimer formation.

Data set [4] deals with Jurkat cells, HL-60 cells, human lymphocyte lines, A1.1 cells, murine primary thymocytes. Briefly: Cellular uptake of substrates by fluorescence microscopy, flow cytometry, HPLC. In kind it is cell-based. The following applies: viable cells. As for the experimental part: The compounds listed in Table 6 were synthesized and assayed for cellular uptake. Cellular internalization of the substrates was tested using Jurkat cells (a human acute T cell leukemic line), HL-60 cells (a human promyelocytic leukemic line), human lymphocyte lines, A1.1 cells (a murine T-cell line), and murine primary thymocytes. Procedures used in determining substrate uptake by viable cells are provided in Example 6 (for the HPLC procedures), in Example 2 (for the fluorescence microscopic analysis), and in Example 3 (for the flow cytometric analysis) a summary of these analyses with respect to cellular uptake of substrates is presented in this example.
The elastase substrate, Fm—K[F1]DAIPNluSIPK[F1]GY (SEQ ID NO:185), (where F1 was carboxytetramethylrhodamine, Fm was Fmoc, K[F1] was F1 covalently attached through the epsilon amino group of lysine (K), and Fm—K is the Fmoc group covalently attached at the alpha amino group of the amino terminal lysine residue) was used with HL-60 cells. Cells were incubated with various concentrations of elastase substrate ranging from 10 nM to 10 μM for 5 minutes to 60 minutes. Then the cells were diluted 5-fold with RPMI 1640 medium containing 5% serum or with phosphate buffered saline. The samples were centrifuged and washed once more with 1 ml of washing solution. After centrifugation and removal of the washing solution, cell pellets were loosened with about 25 ul of medium and these cells were transferred to a glass capillary. Capillary tubes were then placed on a glass microscope slide and examined under a fluorescence microscope using standard rhodamine filters.
For apoptosis-related protease activity determination, 10 μM concentration of the compounds listed in Example 8 (compound structures 2 through 13) were incubated with cells for 30 min. to 3 hours. The cells were then washed similarly twice. Using glass capillary tubes, the washed cells were transferred and examined under a fluorescence microscope.
The concentration of substrates used in flow cytometric analysis was 10 M in RPMI1640 medium containing 4 to 10% fetal calf serum. Cell densities during incubation with the chosen substrates ranged from 50,000 cells per ml to 4,000,000 per ml. Incubation times were from 30 min. to 3 hours at 37° C. and incubation volumes were 50 μL to 2 ml. After incubation with substrate for 30 to 60 min. cell suspensions were diluted 10-fold with ice cold Hank's Buffered Saline Solution (HBSS). This filtered cell suspension was then subjected to flow cytometric analysis using a 488 nm excitation source. Becton Dickenson, Inc.'s flow cytometer, FacSort, was used in the flow cytometric analysis. Typically, 10,000 to 30,000 events per sample were collected.
On the technique in general: Flow cytometry measures light scatter and fluorescence of single cells or particles in a stream.

The next data set addresses T1, CPP32 protease (Homo sapiens, UniProt P42574).
T1 construct: served as a direct measure of the intracellular CPP32 protease activity; endogenous in cells
T1 sequence (P42574 29-277): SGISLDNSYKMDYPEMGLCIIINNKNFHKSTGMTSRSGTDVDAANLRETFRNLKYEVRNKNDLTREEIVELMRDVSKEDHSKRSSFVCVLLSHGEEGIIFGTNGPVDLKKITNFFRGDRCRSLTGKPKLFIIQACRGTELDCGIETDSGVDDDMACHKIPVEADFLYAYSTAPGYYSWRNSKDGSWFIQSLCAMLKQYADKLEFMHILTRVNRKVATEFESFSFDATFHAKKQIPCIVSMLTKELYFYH
Briefly: Cell lysate hydrolysis of DEVD-AFC, competitive substrate inhibition (anti-Fas-stimulated Jurkat cell lysate). Format: biochemical. The following applies: concentration raised to 25 μM; 50 μM DEVD-AFC, 37° C. On the procedure: The level of CPP32 protease activity in the 6 hr ant-Fas-stimulated Jurkat cell lysate was examined using the protease substrate, DEVD-AFC (where AFC is aminofluoromethyl coumarin) 50 μM substrate concentration at 37° C. The buffer used was 50 mM HEPES, pH7.5, 10% w/v sucrose, 0.1% w/v CHAPS.) Fluorescence intensity changes were monitored with an SLM 48000 spectrofluorometer. […] As the concentrations of DEVD, DEVN, and ICE were raised to 25 μM, the rate of DEVD-AFC hydrolysis was decreased.

Non-standard residues stand in square brackets, D forms with d. Primed or numbered codes have the meaning given here. No end group written: not given here. *: point of attachment. F1 = 5-carboxytetramethylrhodamine (donor fluorophore); F1(3) = carboxytetramethylrhodamine; Fmoc = O=C(OCC1c2ccccc2-c2ccccc21)*; code B = not defined here; code J = not defined here; Cbz = O=C(OCc1ccccc1)*; F1″ = not defined here; C5 = not defined here

For `CC(C)C[C@H](NC(=O)[C@H]1O[C@@H]1C(=O)O)C(=O)NCCCCN=C(N)N` [Compound E64], the “inhibition of apoptotic DEVDase activity” value in data set [1] is “lack of inhibition”. As to `CC(=O)N[C@@H](CC(=O)O)C(=O)N[C@@H](CCC(=O)O)C(=O)N[C@H](C(=O)N[C@H](C=O)CC(=O)O)C(C)C` [DEVDCHO], the “inhibition of apoptotic DEVDase activity” value in data set [1] is reported as “complete inhibition”.

In the case of `O=C1OC2(c3ccccc31)c1cc(Br)c(O)c(Br)c1Oc1c2cc(Br)c(O)c1Br` [Eosin], the “concentration above which ground-state dimerization of free dye in solution was observed” value in data set [2] is “higher than 2.8×10^−2 M”. As to `CCN(CC)c1ccc2c(-c3ccccc3C(=O)O)c3ccc(=[N+](CC)CC)cc-3oc2c1.[Cl-]` [Rhodamine B], in data set [2], the “concentration above which ground-state dimerization of free dye in solution was observed” value is “higher than 6×10^−4 M”. Take `NC(=O)CI` [iodoacetamide]: in data set [1], the “inhibition of apoptotic DEVDase activity” value is on record as “inhibition”. On the same count and under the same terms, the result for `CC(=O)N[C@@H](CC(C)C)C(=O)N[C@@H](CC(C)C)C(=O)N[C@H](C=O)CCCNC(=N)N` [leupeptin] reads “lack of inhibition”. `c1cc2ccc3cccc4ccc(c1)c2c34` [pyrene]: the “dye-dye (ground-state, H-type) dimer formation / spectral change” value in data set [3] was “No spectral changes were observed”. Take `CN(C)c1ccc2c(-c3ccccc3C(=O)[O-])c3ccc(N(C)C)cc3[o+]c2c1` [tetramethylrhodamine]: the “free energy of activation of disruption of homodimers” value in data set [2] is reported as “at least 1.7 kcal/mole”. Regarding “F1-DEVDGIDPK[F1]GY ({F1(3)}-DEVDGIDPK(F1(3))GY)”, the “dye-dye (ground-state, H-type) dimer formation / spectral change” value in data set [3] is “did not allow the formation of productive H-type dimers”.

With “F1-PDEVDGIDPK[F1]GY ({F1(3)}-PDEVDGIDPK(F1(3))GY)”, the “dye-dye (ground-state, H-type) dimer formation / spectral change” value in data set [3] is recorded as “did not allow the formation of productive H-type dimers”.

For Fm-DAIPNluSIPK[F1]GY [Compound 3], the “cellular uptake (Table 6)” value in data set [4] was “does not result in significant cellular uptake”.

As to Fm-K[F1]DAIPNluSIPK[F1]GY [Compound 1], the “cellular uptake (Table 6)” value in data set [4] was “efficient cellular uptake”. On the same count and under the same terms, the result for “Fm-K[F1]DBDEVDGIDPK[F1]GY (Fmoc-K(F1″)D[code B]DEVDGIDPK(F1″)GY; reading uncertain; also: printed as Fm-K[F1]DBDEVDGIDPK[F1]GY) [Compound 4]” reads “efficient cellular uptake”.

In the case of “Fm-K[F1]DBDEVNGIDPK[F1]GY (Fmoc-K(F1″)D[code B]DEVNGIDPK(F1″)GY; reading uncertain; also: printed as Fm-K[F1]DBDEVNGIDPK[F1]GY) [Compound 6]”, the “cellular uptake (Table 6)” value in data set [4] is “efficient cellular uptake”.

For the compound “Fm-K[F1]DBEVDGIDPK[F1]GY (Fmoc-K(F1″)D[code B]EVDGIDPK(F1″)GY; reading uncertain; also: printed as Fm-K[F1]DBEVDGIDPK[F1]GY) [Compound 8]”, the “cellular uptake (Table 6)” value in data set [4] is recorded as “efficient cellular uptake”. “Fm-K[F1]DBGDEVDGIDGPK[F1]GY (K(F1)D[code B]GDEVDGIDGPK(F1)GY; not fully specified (N-terminus); printed as Fm-K[F1]DBGDEVDGIDGPK[F1]GY; reading uncertain) [Compound 10]”: the “cellular uptake (Table 6)” value in data set [4] is “efficient cellular uptake”. As to “KDPC5GDEVDGIDGC5PKGY (KDP[C5]GDEVDGIDG[C5]PKGY; reading uncertain; also: printed as KDPC5GDEVDGIDGC5PKGY) [PhiPhiLux, cell-permeable fluorogenic caspase 3/7 substrate from OncoImmunin, Inc]”, in data set [1] (on a cell basis), the “cleavage by apoptotic thymocyte extracts relative to fresh thymocyte extracts” value is given as 25 fold. Take K[F1]DAIPNluSIPK[F1]GY [Compound 2]: in data set [4], the “cellular uptake (Table 6)” value was “not optimum for cellular uptake”. For the compound “K[F1]DBDEVDGIDPK[F1]GY (K(F1″)D[code B]DEVDGIDPK(F1″)GY; reading uncertain; also: printed as K[F1]DBDEVDGIDPK[F1]GY) [Compound 5]”, in data set [4], the “cellular uptake (Table 6)” value is on record as “not optimum for cellular uptake”. The “rate of DEVD-AFC hydrolysis in presence of substrate” value with CPP32 protease is on record as “decreased”. The like results for “K[F1]DBDEVNGIDPK[F1]GY (K(F1″)D[code B]DEVNGIDPK(F1″)GY; reading uncertain; also: printed as K[F1]DBDEVNGIDPK[F1]GY) [Compound 7]” were, in that order, “not optimum for cellular uptake” and “decreased”.

As for “K[F1]DYBADGIDPK[F1]GY (K(F1″)DY[code B]ADGIDPK(F1″)GY; reading uncertain; also: printed as K[F1]DYBADGIDPK[F1]GY) [Compound 9]”, the “cellular uptake (Table 6)” value in data set [4] is on record as “not optimum for cellular uptake”. In addition, the “rate of DEVD-AFC hydrolysis in presence of substrate” value with CPP32 protease is on record as “decreased”. Turning to “Z-K[F1]DBJGDEVDGIDGJPK[F1]GY (Cbz-K(F1″)D[code B][code J]GDEVDGIDG[code J]PK(F1″)GY; reading uncertain; also: printed as Z-K[F1]DBJGDEVDGIDGJPK[F1]GY) [Compound 12]”, the “cellular uptake (Table 6)” value in data set [4] is given as “efficient cellular uptake”.

As to diethylrhodamine, the “free energy of activation of disruption of homodimers” value in data set [2] was 2.4 kcal/mol.
